Test results: patent US8673586B2, “Compounds that interact with kinases” (Alchemia Limited, priority 2002, dated 2014)
Where two headings read alike, the source gives them in different places.

Tests used:
[1] = target: S6K1 (Homo sapiens, UniProt P23443); conditions: cited from earlier work
[2] = target: MSK-1 (Homo sapiens, UniProt O75582); conditions: cited from earlier work
[3] = target: PRK2 (Homo sapiens, UniProt Q16513); conditions: inhibitor concentration 20 μM; cited from earlier work
[4] = target: CDK2 (Homo sapiens, UniProt P24941); conditions: inhibitor concentration 10 μM; cited from earlier work
[5] = system: CK1; conditions: inhibitor concentration 10 μM; cited from earlier work
[6] = target: MKK1 (Homo sapiens, UniProt Q02750); conditions: inhibitor concentration 10 μM; cited from earlier work
[7] = target: SAPK2a (Homo sapiens, UniProt Q16539); conditions: inhibitor concentration 10 μM; cited from earlier work
[8] = target: T1, VEGF-R2 (Homo sapiens, UniProt P35968); assay: VEGF-R2 kinase assay, 33P-ATP incorporation, residual activity; type: biochemical; set-up: key: % residual kinase activity (100% = no inhibitor)
T1 construct: made in house
Procedure: (§1) Compounds were tested in vitro as follows.
(§2) Recombinant protein kinases, which were expressed as fusion proteins in SF9 insect cells or E. coli, were used for all in vitro assays. The purity and identity of each kinase was checked by SDS-PAGE/silver staining and by western blot analysis with specific antibodies.
(§3) All kinase assays except for p38a (see below) were performed in 96-well micro-titre plates. The assay components included assay buffer, ATP, test compound, enzyme and substrate.
(§4) The assay for all enzymes (except for the PKC see below, contained 60 mM HEPES-NaOH, pH 7.5, 3 mM MgCl2, 3 mM MnCl2, 3 μM Na-orthovanadate, 1 mM […], 0.1 μM [γ-^33P]-ATP (approx. 5×10^5 cpm per well).
(§5) The reaction cocktails were incubated at 30° C. for 80 minutes. The reaction was stopped with 50 μl of 2% (v/v) H3PO4, plates were aspirated and washed twice with 200 μl of H2O or 0.9% (w/v) NaCl. Incorporation of ^33Pi was determined with a microplate scintillation counter.
(§6) All data is presented as residual activity, which is the activity of the enzyme in the presence of the stipulated concentration of inhibitor or compound. 100% activity is the maximum activity of the enzyme in the absence of any inhibitor or compound.
(§7) In all experiments the Z′ value was calculated according to Zhang et al to (J-H Zhang, T. D. Y Chung, K. R. Oldenburg (1999) Journal of Biomolecular Screening 4:67-73) using the standard deviations and mean values of the positive and negative controls. Z′=1−(3*Stdevneg+3*Stdevpos)/(Meanpos−Meanneg)
(§8) Only data where the Z′ value was >0.5 was used.

[9] = target: CDK2/CycA (Homo sapiens, UniProt P24941); assay: CDK2/CycA kinase assay, 33P-ATP incorporation, residual activity; type: biochemical; conditions: tested at 25 micromolar
Procedure: as §1, §2, §3, §4, §5, §6, §7, §8

[10] = target: T2, KIT (Homo sapiens, UniProt P10721); assay: KIT kinase assay, 33P-ATP incorporation, residual activity; type: biochemical
T2 construct: made in house
Procedure: as §1, §2, §3, §4, §5, §6, §7, §8

[11] = target: ABL (Homo sapiens, UniProt P00519); assay: ABL kinase assay, 33P-ATP incorporation, residual activity; type: biochemical; conditions: tested at 25 micromolar
Procedure: as §1, §2, §3, §4, §5, §6, §7, §8

[12] = target: T3, TIE2 (Homo sapiens, UniProt Q02763); assay: TIE2 kinase assay, 33P-ATP incorporation, residual activity; type: biochemical
T3 construct: made in house
Procedure: as §1, §2, §3, §4, §5, §6, §7, §8

[13] = target: T4, MET (Homo sapiens, UniProt P08581); assay: MET kinase assay, 33P-ATP incorporation, residual activity; type: biochemical; set-up: key: % residual kinase activity (100% = no inhibitor); conditions: tested at 25 micromolar
T4 construct: made in house
Procedure: as §1, §2, §3, §4, §5, §6, §7, §8

[14] = target: T5, PDGF-Ralpha (Homo sapiens, UniProt P16234); assay: PDGF-Ralpha kinase assay, 33P-ATP incorporation, residual activity; type: biochemical; conditions: tested at 25 micromolar
T5 construct: made in house
Procedure: as §1, §2, §3, §4, §5, §6, §7, §8

[15] = target: PKC-beta1 (Homo sapiens, UniProt P05771); assay: PKC-beta1 kinase assay, 33P-ATP incorporation, residual activity; type: biochemical; conditions: tested at 25 micromolar
Procedure: as §1, §2, §3
The assay for the PKCs contained 60 mM HEPES-NaOH, pH 7.5, 1 mM EDTA, 1.25 mM EGTA, 5 mM MgCl2, 1.32 mM CaCl2, 5 μg/ml Phosphatidylserine, 1 μg/ml 1.2 Dioleyl-glycerol, 1.2 mM DTT, 50 μg/ml PEG20000, 0.1 μM [γ-^33P]-ATP (approx. 5×10^5 cpm per well).
as §5, §6, §7, §8

[16] = target: EGF-R (Homo sapiens, UniProt P00533); assay: EGF-R kinase assay, 33P-ATP incorporation, residual activity; type: biochemical; conditions: tested at 25 micromolar
Procedure: as §1, §2, §3, §4, §5, §6, §7, §8

[17] = target: mitogen-activated protein kinase p38α (Homo sapiens, UniProt Q16539); assay: p38α assay, NanoCarrier 2080 format, fluorescence polarization (2D-FIDA anisotropy); type: biochemical
Procedure: as §1, §2
The mitogen-activated protein kinase p38α assays were done in a proprietary microassay NanoCarrier™ 2080 format. In these assays phosphorylation was detected by a phospho-substrate specific monoclonal antibody in an indirect competition assay. The degree of binding of the antibody to the phospho-substrate was measured by fluorescence polarization using 2D-FIDA anisotrophy. In these experiments the final concentration of the enzyme was 1.6 nM and the substrate was 2 μM.
as §6, §7, §8

[18] = target: PKCα (Homo sapiens, UniProt P17252); conditions: inhibitor concentration 1 μM; cited from earlier work
[19] = target: GSK3β (Homo sapiens, UniProt P49841); conditions: inhibitor concentration 1 μM; cited from earlier work
[20] = target: MAPKAPK1b (Homo sapiens, UniProt P51812); conditions: inhibitor concentration 1 μM; cited from earlier work
[21] = compounds marked !: tested at 2.5 micromolar

mitogen-activated protein kinase p38α, sequence (Q16539 whole entry, species assumed): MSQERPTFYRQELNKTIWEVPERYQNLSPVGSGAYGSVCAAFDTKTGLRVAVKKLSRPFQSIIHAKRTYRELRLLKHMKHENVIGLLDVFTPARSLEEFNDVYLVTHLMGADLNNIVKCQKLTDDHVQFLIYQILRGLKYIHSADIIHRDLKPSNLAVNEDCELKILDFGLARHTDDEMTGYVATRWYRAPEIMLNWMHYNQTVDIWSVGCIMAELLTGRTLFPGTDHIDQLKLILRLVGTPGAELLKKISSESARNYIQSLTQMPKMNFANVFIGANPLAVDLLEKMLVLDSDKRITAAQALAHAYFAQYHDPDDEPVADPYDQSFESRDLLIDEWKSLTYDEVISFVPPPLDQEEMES
T3 sequence (Q02763 23-1124, species assumed): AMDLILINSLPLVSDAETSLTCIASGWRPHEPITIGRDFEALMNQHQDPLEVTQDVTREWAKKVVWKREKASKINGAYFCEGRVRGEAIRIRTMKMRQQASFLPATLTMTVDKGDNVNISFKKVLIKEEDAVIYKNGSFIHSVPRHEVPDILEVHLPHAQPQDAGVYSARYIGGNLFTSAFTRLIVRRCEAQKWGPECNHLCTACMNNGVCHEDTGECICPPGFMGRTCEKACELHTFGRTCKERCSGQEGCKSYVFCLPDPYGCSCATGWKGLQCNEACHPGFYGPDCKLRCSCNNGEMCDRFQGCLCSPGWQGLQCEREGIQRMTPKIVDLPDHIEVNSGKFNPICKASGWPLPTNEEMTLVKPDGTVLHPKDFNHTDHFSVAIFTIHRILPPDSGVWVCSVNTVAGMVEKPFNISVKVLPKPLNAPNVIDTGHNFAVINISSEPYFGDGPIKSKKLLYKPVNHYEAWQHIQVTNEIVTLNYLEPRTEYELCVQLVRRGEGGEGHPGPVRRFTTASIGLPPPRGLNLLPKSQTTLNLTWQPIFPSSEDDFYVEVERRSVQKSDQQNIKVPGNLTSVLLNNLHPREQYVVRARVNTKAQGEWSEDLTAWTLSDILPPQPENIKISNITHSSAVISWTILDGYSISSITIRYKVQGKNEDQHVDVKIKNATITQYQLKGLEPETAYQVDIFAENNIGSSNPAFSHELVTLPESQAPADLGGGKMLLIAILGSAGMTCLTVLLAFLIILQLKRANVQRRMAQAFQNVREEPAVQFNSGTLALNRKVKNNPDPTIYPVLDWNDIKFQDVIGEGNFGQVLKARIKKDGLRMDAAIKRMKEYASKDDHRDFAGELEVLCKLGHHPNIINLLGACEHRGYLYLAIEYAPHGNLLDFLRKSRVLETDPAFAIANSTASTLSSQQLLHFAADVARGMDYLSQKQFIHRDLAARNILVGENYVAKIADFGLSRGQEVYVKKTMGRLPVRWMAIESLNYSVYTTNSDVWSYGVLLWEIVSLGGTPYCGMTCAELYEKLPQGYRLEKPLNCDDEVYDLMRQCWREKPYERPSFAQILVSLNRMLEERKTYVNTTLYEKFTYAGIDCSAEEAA
ABL, sequence (P00519 whole entry, species assumed): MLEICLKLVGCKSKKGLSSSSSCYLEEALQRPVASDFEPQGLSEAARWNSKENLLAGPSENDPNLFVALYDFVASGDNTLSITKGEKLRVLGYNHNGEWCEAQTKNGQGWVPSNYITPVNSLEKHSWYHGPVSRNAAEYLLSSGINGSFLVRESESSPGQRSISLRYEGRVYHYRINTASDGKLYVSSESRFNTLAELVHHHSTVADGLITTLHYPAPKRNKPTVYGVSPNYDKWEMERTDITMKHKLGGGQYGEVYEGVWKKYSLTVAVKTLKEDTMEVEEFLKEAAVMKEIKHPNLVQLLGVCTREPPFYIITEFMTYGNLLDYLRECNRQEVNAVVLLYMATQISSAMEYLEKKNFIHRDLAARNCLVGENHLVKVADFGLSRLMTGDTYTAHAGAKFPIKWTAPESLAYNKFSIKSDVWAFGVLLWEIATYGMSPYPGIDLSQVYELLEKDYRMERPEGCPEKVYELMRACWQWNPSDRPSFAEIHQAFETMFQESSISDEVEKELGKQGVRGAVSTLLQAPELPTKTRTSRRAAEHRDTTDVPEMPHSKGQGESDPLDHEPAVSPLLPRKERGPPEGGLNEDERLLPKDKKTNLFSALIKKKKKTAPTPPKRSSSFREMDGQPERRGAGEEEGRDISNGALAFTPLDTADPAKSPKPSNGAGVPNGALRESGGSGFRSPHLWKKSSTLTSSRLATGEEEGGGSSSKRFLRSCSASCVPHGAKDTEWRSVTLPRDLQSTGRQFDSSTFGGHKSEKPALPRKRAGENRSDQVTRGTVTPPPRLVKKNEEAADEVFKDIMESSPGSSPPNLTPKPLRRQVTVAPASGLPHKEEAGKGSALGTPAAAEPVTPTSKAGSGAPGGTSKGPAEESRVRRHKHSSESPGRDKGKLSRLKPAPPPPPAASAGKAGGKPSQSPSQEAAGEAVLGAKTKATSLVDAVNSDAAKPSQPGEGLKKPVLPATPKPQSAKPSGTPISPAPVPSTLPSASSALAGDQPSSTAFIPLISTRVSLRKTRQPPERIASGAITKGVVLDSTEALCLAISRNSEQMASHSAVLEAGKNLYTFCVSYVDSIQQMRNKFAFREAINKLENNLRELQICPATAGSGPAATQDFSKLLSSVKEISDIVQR
T1 sequence (P35968 20-1356): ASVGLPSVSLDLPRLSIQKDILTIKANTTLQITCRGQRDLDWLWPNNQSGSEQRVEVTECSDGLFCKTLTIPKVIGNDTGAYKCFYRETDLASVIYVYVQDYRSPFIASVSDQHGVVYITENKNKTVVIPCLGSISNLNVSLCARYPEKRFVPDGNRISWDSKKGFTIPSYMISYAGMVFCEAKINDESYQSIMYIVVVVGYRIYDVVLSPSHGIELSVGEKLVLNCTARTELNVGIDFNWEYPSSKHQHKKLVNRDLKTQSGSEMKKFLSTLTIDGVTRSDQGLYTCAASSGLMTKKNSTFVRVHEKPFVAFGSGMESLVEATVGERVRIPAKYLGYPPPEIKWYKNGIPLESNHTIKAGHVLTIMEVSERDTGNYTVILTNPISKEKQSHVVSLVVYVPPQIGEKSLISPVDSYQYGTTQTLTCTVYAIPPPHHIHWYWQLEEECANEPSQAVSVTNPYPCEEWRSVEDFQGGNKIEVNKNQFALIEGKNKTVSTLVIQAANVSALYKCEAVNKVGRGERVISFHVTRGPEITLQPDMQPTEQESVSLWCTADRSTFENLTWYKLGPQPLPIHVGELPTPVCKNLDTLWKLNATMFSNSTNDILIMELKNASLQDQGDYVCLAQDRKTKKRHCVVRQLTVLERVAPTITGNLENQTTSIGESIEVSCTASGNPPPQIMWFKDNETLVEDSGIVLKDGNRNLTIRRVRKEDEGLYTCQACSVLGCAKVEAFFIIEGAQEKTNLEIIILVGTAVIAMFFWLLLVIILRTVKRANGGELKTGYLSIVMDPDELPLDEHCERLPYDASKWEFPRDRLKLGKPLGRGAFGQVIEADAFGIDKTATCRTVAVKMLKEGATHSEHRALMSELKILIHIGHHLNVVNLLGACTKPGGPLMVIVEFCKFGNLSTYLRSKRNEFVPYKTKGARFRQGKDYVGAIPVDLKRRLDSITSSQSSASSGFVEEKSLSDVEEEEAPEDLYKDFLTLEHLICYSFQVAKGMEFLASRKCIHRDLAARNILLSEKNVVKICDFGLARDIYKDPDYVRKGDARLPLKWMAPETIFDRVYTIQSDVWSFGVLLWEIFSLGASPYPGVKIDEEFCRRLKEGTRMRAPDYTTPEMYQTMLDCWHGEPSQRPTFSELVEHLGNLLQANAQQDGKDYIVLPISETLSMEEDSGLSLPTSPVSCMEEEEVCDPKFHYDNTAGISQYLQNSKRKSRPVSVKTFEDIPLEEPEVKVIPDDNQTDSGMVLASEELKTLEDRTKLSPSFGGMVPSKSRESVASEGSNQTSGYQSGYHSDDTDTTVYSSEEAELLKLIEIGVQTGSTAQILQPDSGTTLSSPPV
PKC-beta1, sequence (P05771 whole entry): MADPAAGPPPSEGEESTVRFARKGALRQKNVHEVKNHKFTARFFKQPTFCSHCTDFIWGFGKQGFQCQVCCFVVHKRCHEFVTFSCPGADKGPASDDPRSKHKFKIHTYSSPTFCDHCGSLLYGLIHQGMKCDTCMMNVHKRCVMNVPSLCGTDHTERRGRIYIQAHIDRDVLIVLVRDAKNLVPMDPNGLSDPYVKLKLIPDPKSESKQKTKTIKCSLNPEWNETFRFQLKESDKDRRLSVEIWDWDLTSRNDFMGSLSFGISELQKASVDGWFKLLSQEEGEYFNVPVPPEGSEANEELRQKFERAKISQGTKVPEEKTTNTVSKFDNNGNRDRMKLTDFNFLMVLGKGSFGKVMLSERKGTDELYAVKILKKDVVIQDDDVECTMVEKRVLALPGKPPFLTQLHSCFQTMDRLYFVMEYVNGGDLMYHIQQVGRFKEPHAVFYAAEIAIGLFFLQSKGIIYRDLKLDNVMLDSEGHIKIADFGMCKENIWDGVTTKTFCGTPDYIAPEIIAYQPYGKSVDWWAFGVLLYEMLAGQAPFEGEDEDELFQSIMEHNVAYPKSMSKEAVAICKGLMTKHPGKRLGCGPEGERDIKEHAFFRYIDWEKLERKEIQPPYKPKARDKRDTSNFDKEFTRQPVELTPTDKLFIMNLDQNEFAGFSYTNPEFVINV
SAPK2a, sequence (Q16539 whole entry, species assumed): as the sequence (Q16539 whole entry, species assumed) above
MKK1, sequence (Q02750 whole entry, species assumed): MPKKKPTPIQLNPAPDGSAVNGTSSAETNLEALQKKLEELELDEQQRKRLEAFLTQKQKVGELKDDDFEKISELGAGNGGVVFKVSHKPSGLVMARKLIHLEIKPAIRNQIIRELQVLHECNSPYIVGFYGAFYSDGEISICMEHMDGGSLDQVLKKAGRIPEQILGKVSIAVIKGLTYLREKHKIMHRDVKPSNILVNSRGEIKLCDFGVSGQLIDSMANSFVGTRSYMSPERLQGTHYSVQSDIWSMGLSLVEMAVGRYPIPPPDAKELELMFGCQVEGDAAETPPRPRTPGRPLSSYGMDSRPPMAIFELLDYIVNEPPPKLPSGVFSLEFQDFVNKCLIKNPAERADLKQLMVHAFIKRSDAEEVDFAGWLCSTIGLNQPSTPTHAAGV

| VEGF ([8]; tested at 25 micromolar) | CDK2 [9] | c-Kit ([10]; tested at 25 micromolar) | ABL [11] | Tie2 ([12]; tested at 25 micromolar) | MET [13] | PDGFalpha [14] | PKC [15] | EGF-R [16] | Molecule | also measured |
| --- | --- | --- | --- | --- | --- | --- | --- | --- | --- | --- |
| 31 | 20 | 17 | 6 | 12 | 72 | 85 | 80 | 66 | CCCCCCCCOc1ccc(-c2nc3cc(C(N)=O)ccc3n2C[C@H]2O[C@@H](n3nnc(C(N)=O)c3-c3ccccc3)[C@H](O)[C@@H]2O)cc1 [compound 279] |  |
| 44 | 119 | 38 | 96 | 72 | 88 | 96 | 96 | 88 | Nc1ncnc2c1ncn2[C@@H]1O[C@H](Cn2c(-c3ccc(OCc4ccccc4)cc3)nc3ccccc32)[C@@H](O)[C@H]1O [compound 912] | P38 ([17]; tested at 25 micromolar): 70 |

More lines, now with the values behind:

| Molecule | VEGF ([8]; tested at 25 micromolar) | CDK2 [9] | c-Kit ([10]; tested at 25 micromolar) | ABL [11] | Tie2 ([12]; tested at 25 micromolar) | MET [13] | PDGFalpha [14] | PKC [15] | EGF-R [16] | also measured |
| --- | --- | --- | --- | --- | --- | --- | --- | --- | --- | --- |
| O=S(=O)(c1cccc2cnccc12)N1CCCNCC1 [HA1077] |  |  |  |  |  |  |  |  |  | residual activity S6K1 ([1]; inhibitor concentration 20 μM): 32%; residual activity MSK1 ([2]; inhibitor concentration 20 μM): 19%; residual activity PRK2 [3]: 15% |
| CC(C)(C)n1nc(-c2ccc(Cl)cc2)c2c(N)ncnc21 [PP2] |  |  |  |  |  |  |  |  |  | residual activity CDK2 [4]: 3%; residual activity CK1 [5]: 6%; residual activity MKK1 [6]: 55%; residual activity SAPK2a [7]: 21% |
| Cc1cccc(CSc2nc3cc(C(N)=O)ccc3n2C[C@H]2O[C@@H](n3cnc4c(N)ncnc43)[C@H](O)[C@@H]2O)c1 [compound 100] | 58 | 70 | 52 | 109 | 42 | 88 | 106 | 80 | 69 |  |
| CCCCCCCCSc1nc2cc(C(N)=O)ccc2n1C[C@H]1O[C@@H](n2nnc(C(N)=O)c2-c2ccccc2)[C@H](O)[C@@H]1O [compound 146] | 101 | 270 | 53 | 115 | 71 | 78 | 127 | 142 | 94 |  |
| Nc1ncnc2c1ncn2[C@@H]1O[C@H](CN2C(=O)C(Cc3ccccc3)N(Cc3ccccc3[N+](=O)[O-])C2=O)[C@@H](O)[C@H]1O (some centres unmarked) [compound 212] | 10 | 25 | 12 | 41 | 1 | 46 | 38 | 26 | 23 |  |
| Nc1ncnc2c1ncn2[C@@H]1O[C@H](CN2C(=O)C(Cc3ccccc3)N(Cc3cccn3S(=O)(=O)c3ccccc3)C2=O)[C@@H](O)[C@H]1O (some centres unmarked) [compound 223] | 11 | 40 | 109 | 24 | 0 | 31 | 17 | 10 | 22 |  |
| CCn1c2ccccc2c2ccc(CN3C(=O)N(C[C@H]4O[C@@H](n5nnc(C(N)=O)c5-c5ccccc5)[C@H](O)[C@@H]4O)C(=O)C3Cc3ccccc3)cc21 (some centres unmarked) [compound 246] | 8 | 26 | 6 | 30 | −1 | 27 | 28 | 13 | 15 |  |
| CCCc1c(C(N)=O)nnn1[C@@H]1O[C@H](CNCc2nc3cc(C(N)=O)ccc3n2-c2ccc(-c3ccccc3)cc2)[C@@H](O)[C@H]1O [compound 345] | 54 | 67 | 40 | 74 | 41 | 87 | 82 | 65 | 58 |  |
| CCCc1c(C(N)=O)nnn1[C@@H]1O[C@H](Cn2c(-c3ccc(F)c(C(F)(F)F)c3)nc3cc(C(N)=O)ccc32)[C@@H](O)[C@H]1O [compound 456] | 96 | 28 | 92 | 107 | 91 | 103 | 113 | 104 | 96 |  |
| Nc1ncnc2c1ncn2[C@@H]1O[C@H](CN2C(=O)C(Cc3ccccc3)N(Cc3ccccc3Sc3ccc(Cl)cc3)C2=O)[C@@H](O)[C@H]1O (some centres unmarked) [compound 604] | 18 | 30 | 13 | 49 | 3 | 46 | 46 | 50 | 27 | P38 ([17]; tested at 25 micromolar): 100 |
| Nc1ncnc2c1ncn2[C@@H]1O[C@H](CN2C(=O)C(Cc3ccccc3)N(Cc3cccs3)C2=O)[C@@H](O)[C@H]1O (some centres unmarked) [compound 605] | 14 | 26 | 18 | 55 | 5 | 54 | 56 | 27 | 20 | P38 ([17]; tested at 25 micromolar): 100 |
| NC(=O)c1nnn([C@@H]2O[C@H](Cn3c(-c4ccc(OCc5ccccc5)cc4)nc4cc(Cl)c(Cl)cc43)[C@@H](O)[C@H]2O)c1-c1ccccc1 [compound 668] |  |  |  |  |  |  |  |  |  | c-Kit [10, 21]: 16; Tie2 [12, 21]: 1 |
| NC(=O)c1nnn([C@@H]2O[C@H](Cn3c(-c4ccc(OCc5ccccc5)cc4)nc4cc(Cl)c(Cl)cc43)[C@@H](O)[C@H]2O)c1-c1ccc(Cl)cc1 [compound 669] |  |  |  |  |  |  |  |  |  | VEGF [8, 21]: 34; c-Kit [10, 21]: 11; Tie2 [12, 21]: 1; P38 [17, 21]: 97 |
| COc1ccc(-c2c(C(N)=O)nnn2[C@@H]2O[C@H](Cn3c(-c4ccc(OCc5ccccc5)cc4)nc4cc(Cl)c(Cl)cc43)[C@@H](O)[C@H]2O)cc1 [compound 670] |  |  |  |  |  |  |  |  |  | VEGF [8, 21]: 23; c-Kit [10, 21]: 9; Tie2 [12, 21]: 1 |
| CCCCCCCCOc1ccc(-c2nc3c(NC)ncnc3n2C[C@H]2O[C@@H](n3nnc(C(N)=O)c3-c3ccccc3)[C@H](O)[C@@H]2O)cc1 [compound 725] |  |  |  |  |  |  |  |  |  | c-Kit [10, 21]: 6; Tie2 [12, 21]: 10 |
| Ro-31-8220 |  |  |  |  |  |  |  |  |  | residual activity PKCα [18]: 3%; residual activity GSK3β [19]: 5%; residual activity S6K1 ([1]; inhibitor concentration 1 μM): 6%; residual activity MAPKAPK1b [20]: 2%; residual activity MSK1 ([2]; inhibitor concentration 1 μM): 2% |
